{"source": "patent US20200278355A1", "about": "“CONJUGATED PROTEINS AND USES THEREOF” (THE SCRIPPS RESEARCH INSTITUTE, priority 2017, published 2020)", "key": {"[1]": {"biological_target": "T1, SCP2 (Homo sapiens, UniProt P22307)", "T1 construct": "H460 cells or H460 cells expressing luciferase in a 10 cm plate were incubated with indicated compounds; endogenous in cells; host or cells: H460", "T1 sequence (P22307 whole entry)": "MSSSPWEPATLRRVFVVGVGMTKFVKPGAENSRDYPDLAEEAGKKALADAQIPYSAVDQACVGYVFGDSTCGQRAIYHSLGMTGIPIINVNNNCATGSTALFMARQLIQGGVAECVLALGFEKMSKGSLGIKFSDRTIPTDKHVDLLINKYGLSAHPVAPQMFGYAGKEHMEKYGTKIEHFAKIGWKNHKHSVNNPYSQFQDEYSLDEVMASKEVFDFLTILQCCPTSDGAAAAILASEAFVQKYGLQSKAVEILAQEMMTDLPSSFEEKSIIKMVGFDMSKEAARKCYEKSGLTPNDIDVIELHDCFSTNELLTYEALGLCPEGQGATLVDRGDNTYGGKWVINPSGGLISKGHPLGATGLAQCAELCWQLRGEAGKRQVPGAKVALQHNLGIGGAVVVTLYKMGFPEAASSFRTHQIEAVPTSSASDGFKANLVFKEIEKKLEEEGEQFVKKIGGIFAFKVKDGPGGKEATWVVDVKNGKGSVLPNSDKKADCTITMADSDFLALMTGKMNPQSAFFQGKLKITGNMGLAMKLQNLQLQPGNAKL", "test": "ABPP-SILAC BPK-29yne competition in H460 cells: SCP2", "format": "cell-based", "conditions": "20 μM", "procedure": "(§1) Isotopically labeled H460 cell lines were generated as described above. Light and heavy cells were treated with compounds (20 μM) or DMSO, respectively, for 3 h, followed by labeling with the BPK-29yne (5 μM) for 30 min. Cells were washed once ice-cold PBS and lysed in 1% Triton 100-X dissolved in PBS with protease inhibitors (Sigma) by sonication. Lysate was adjusted to 1.5 mg ml^−1 in 500 μL. Samples were conjugated by CuAAC to Biotin-PEG4-azide (5 μL of 10 mM stocks in DMSO, final concentration=100 μM). CuAAC “click” mix contained TCEP, TBTA ligand and CuSO4 as detailed for isoTOP-ABPP sample preparation. Samples were further processed as detailed in: isoTOP-ABPP streptavidin enrichment and isoTOP-ABPP trypsin TEV digestion with the following exception: after overnight incubation at 37° C. with trypsin, tryptic digests were separated from the beads with Micro Bio-Spin columns (Bio-Rad) by centrifugation (1,000×g, 1 min). Beads were rinsed once with water (200 μL) and combined with tryptic digests. […]\n(§2) The MS2 spectra data were extracted and searched using RAW Convertor and ProLuCID algorithm as described in isoTOP-ABPP peptide and protein quantification. […] Ratios of heavy/light (DMSO/test compound) peaks were calculated using in-house CIMAGE software. […] The mean R values and standard deviation for multiple biological experiments were calculated from the average ratios from each replicate. […]"}, "[2]": {"biological_target": "T2, FAM213A (Homo sapiens, UniProt Q9BRX8)", "T2 construct": "Isotopically labeled H460 cell lines were generated as described above; endogenous in cells; host or cells: H460 (SILAC-labelled)", "T2 sequence (Q9BRX8 whole entry)": "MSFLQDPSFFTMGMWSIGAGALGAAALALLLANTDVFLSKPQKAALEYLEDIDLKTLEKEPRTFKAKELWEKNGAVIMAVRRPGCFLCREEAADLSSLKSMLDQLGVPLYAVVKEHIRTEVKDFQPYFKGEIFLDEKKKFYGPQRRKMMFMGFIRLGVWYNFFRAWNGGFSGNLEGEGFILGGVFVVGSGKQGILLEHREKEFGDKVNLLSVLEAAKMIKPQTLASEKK", "test": "ABPP-SILAC BPK-29yne competition in H460 cells: FAM213A", "format": "cell-based", "conditions": "20 μM", "procedure": "as §1, §2"}}, "data": [{"smiles": "O=C(c1ccc(N2CCOCC2)cc1)N1CCCC(N(Cc2ccccc2)C(=O)CCl)CC1", "note": "(centres unmarked) [BPK-29, N-benzyl-2-chloro-N-(1-(4-morpholinobenzoyl)azepan-4-yl)acetamide]", "values": [{"measurement": "BPK-29-competed BPK-29yne analysis", "setting": "[1]", "result": "Yes (Competed defined as showing R value ≥ 2.5 at 20 μM of test compound)"}, {"measurement": "BPK-29-competed BPK-29yne analysis", "setting": "[2]", "result": "Yes (Competed defined as showing R value ≥ 2.5 at 20 μM of test compound)"}]}]}
